The structures appear in SMILES notation.

For experiment [1], the target named is T1, GlunN1/GluN2A glutamate receptors (Homo sapiens, UniProt Q05586+Q12879).
T1 construct: expressed in transfected cells
Put plainly: Whole-cell patch clamp of mammalian cells (Ionworks Barracuda, IWB), NMDA potentiation (PAM), GluN2A. As to conditions: peak current amplitude; for GluN2A PCA IWB Ephys % potentiation at 3 μM: 3 μM test compound, co-application with EC20 L-glutamate and 30 μM glycine; for EC50: 8-point concentration-response, read-out: GluN2A PCA EC50; for Emax: maximal potentiation, read-out: GluN2A PCA Emax (%). The format is cell-based. How it is done:
(§1) NMDA potentiation in mammalian cells which expressed NMDA receptors was assessed using the whole cell patch clamp to determine the PAM activity of compounds as described below. An automatic patch-clamp system can be used determine the […] activity of compounds as described below.
(§2) The whole-cell patch-clamp technique was used to investigate the effects of positive allosteric modulating activity of test compounds on GlunN1/GluN2A and GluN2B glutamate receptors expressed in mammalian cells.
HEK293 cells were transformed with adenovirus 5 DNA and transfected with cDNA encoding the human GRIN1/GRIN2A genes. Stable transfectants were selected using G418 and Zeocin-resistance genes incorporated into the expression plasmid and selection pressure maintained with G418 and Zeocin in the medium. Cells were cultured in Dulbecco's Modified Eagle Medium/Nutrient Mixture (D-MEM/F-12) supplemented with 10% fetal bovine serum, 100 μg/ml penicillin G sodium, 100 μg/ml streptomycin sulphate, 100 μg/ml Zeocin, 5 μg/ml blasticidin and 500 μg/ml G418.
(§3) Test article effects were evaluated in 8-point concentration-response format (4 replicate wells/concentration). All test and control solutions contained 0.3% DMSO and 0.01% Kolliphor® EL (C5135, Sigma). The test article formulations were loaded in a 384-well compound plate using an automated liquid handling system (SciClone ALH3000, Caliper LifeSciences). The measurements were performed using Ion Works Barracuda platform following this procedure:
(§4) • a) Intracellular solution (mM): 50 mM CsCl, 90 mM CsF, 2 mM MgCl2, 5 mM EGTA, 10 mM HEPES. Adjust to pH 7.2 with CsOH. • b) Extracellular solution, HB-PS (composition in mM): NaCl, 137; KCl, 1.0; CaCl2, 5; HEPES, 10; Glucose, 10; pH adjusted to 7.4 with NaOH (refrigerated until use). • c) Holding potential: −70 mV, potential during agonist/PAM application: −40 mV. Recording Procedure: • a) Extracellular buffer will be loaded into the PPC plate wells (11 μL per well). Cell suspension will be pipetted into the wells (9 μL per well) of the PPC planar electrode. • b) Whole-cell recording configuration will be established via patch perforation with membrane currents recorded by on-board patch clamp amplifiers. • c) Two recordings (scans) will be performed. First, during pre-application of test article alone (duration of pre-application—5 min) and second, during test articles and agonist (EC20 L-glutamate and 30 μM glycine) co-application to detect positive modulatory effects of the test article.
(§5) Test Article Administration: The first pre-application will consist of the addition of 20 μL of 2× concentrated test article solution and, second, of 20 μL of 1× concentrated test article and agonist at 10 μL/s (2 second total application time).
(§6) Potentiating effect of positive allosteric modulators (PAM) on the channel will be calculated as % activation=(IPAM/IEC10-30)×100%−100% where IPAM will be the L-glutamate EC10-30-elicited current in presence of various concentrations of test articles and IEC20 will be the mean current elicited with L-glutamate EC20. PAM concentration-response data will be fitted to an equation of the form: % Activation=% L-glutamate EC20+{(% MAX−% L-glutamate EC20)/[1+([Test]/EC50)^N]} where [Test] will be the concentration of PAM (test article), EC50 will be the concentration of PAM producing half-maximal activation, N will be the Hill coefficient, % L-glutamate EC20 will be the percentage of the current Elicited with L-glutamate EC20, % MAX is the percentage of the current activated with the highest dose of PAM co-admitted with L-glutamate EC20 and % Activation will be the percentage of the current elicited with L-glutamate EC10-30 at each PAM concentration.
(§7) The maximal amplitude of the evoked currents are measured and defined as Peak Current Amplitude (PCA).

For experiment [2], the target named is T2, GluN2B glutamate receptors (Homo sapiens, UniProt Q05586+Q13224).
T2 construct: expressed in transfected cells
T2 sequence (Q13224 27-1484, other chains not shown): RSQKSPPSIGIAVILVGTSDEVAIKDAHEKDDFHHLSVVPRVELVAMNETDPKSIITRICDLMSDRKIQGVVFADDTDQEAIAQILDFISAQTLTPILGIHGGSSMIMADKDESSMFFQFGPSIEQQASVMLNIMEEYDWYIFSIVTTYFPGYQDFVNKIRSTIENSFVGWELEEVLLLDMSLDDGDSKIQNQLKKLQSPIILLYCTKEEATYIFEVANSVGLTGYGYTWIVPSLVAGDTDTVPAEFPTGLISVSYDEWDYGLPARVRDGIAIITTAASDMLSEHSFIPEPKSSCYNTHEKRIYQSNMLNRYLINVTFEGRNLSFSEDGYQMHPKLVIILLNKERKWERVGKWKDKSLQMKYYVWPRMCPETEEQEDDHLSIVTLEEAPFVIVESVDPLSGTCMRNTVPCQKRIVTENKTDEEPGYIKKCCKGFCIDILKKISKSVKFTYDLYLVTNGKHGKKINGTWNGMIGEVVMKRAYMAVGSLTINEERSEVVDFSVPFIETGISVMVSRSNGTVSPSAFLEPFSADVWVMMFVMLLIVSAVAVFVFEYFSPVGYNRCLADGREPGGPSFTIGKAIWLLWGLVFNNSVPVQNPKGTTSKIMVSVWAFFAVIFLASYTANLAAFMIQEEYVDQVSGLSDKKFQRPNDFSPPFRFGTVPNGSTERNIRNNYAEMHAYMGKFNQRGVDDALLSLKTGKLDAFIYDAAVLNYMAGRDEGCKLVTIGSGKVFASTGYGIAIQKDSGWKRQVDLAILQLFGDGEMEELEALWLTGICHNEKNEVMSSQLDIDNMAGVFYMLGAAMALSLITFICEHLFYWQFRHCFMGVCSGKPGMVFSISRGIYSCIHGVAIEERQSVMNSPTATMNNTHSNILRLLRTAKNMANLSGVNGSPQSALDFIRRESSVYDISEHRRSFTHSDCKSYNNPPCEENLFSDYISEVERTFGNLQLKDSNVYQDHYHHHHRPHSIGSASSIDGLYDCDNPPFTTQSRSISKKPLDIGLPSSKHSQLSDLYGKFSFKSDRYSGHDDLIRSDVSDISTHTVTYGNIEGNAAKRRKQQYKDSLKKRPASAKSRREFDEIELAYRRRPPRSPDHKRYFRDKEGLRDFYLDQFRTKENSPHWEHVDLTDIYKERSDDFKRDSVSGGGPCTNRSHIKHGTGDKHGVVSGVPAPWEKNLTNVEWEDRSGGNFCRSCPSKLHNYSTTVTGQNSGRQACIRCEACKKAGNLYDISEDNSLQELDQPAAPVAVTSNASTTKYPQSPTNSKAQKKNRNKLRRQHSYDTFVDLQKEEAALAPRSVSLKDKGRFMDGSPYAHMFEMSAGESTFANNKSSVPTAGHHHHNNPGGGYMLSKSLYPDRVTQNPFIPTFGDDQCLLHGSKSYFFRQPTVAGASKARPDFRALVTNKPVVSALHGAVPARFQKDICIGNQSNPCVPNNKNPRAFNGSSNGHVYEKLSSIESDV
The experiment can be described thus: Whole-cell patch clamp of mammalian cells (Ionworks Barracuda, IWB), NMDA potentiation (PAM), GluN2B. It is filed as cell-based. The note with it: peak current amplitude; for GluN2B PCA IWB Ephys % potentiation at 3 μM: 3 μM test compound, co-application with EC20 L-glutamate and 30 μM glycine; for EC50: 8-point concentration-response, read-out: GluN2B PCA EC50; for Emax: maximal potentiation, read-out: GluN2B PCA Emax (%). How it is done: as §1, §2, §3, §4, §5, §6, §7

T1 sequence (Q12879 23-1464, other chains not shown): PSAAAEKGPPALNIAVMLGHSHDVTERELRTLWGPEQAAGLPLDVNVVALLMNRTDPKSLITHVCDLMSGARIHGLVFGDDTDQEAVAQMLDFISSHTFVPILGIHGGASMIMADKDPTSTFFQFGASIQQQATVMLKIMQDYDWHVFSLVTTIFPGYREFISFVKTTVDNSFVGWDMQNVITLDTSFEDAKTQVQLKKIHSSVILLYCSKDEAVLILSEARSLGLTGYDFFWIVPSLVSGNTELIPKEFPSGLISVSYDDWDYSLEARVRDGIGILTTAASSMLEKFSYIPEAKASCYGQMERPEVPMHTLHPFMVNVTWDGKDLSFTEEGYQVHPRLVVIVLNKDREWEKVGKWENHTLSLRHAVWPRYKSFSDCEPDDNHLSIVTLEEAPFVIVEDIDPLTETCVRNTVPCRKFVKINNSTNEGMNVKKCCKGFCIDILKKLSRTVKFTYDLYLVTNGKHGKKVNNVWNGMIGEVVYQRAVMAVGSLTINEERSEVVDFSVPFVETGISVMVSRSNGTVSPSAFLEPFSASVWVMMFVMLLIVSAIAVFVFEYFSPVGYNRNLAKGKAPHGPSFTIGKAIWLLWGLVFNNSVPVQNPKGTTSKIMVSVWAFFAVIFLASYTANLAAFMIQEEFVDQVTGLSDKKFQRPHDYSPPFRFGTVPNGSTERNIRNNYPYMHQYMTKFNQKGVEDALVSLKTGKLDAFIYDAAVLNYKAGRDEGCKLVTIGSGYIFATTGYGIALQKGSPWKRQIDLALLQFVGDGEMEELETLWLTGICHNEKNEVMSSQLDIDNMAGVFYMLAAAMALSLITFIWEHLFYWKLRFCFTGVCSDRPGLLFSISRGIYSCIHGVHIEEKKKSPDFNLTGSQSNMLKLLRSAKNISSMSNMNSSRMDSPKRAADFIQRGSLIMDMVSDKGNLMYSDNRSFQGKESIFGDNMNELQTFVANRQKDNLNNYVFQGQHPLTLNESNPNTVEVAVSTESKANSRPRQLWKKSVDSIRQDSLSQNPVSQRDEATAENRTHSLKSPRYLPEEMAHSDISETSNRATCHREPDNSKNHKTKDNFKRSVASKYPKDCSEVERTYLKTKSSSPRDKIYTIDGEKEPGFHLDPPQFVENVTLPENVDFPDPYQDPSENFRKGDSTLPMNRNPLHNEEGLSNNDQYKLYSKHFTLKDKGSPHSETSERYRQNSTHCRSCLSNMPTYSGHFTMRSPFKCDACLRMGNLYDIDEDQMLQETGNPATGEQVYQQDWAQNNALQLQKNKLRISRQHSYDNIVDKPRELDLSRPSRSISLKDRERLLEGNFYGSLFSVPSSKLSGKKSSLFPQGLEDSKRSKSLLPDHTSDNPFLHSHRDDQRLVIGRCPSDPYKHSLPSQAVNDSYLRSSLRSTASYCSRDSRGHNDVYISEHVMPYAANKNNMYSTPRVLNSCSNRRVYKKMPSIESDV

On to `C[C@H](CCC(C)(C)O)[C@H]1CC[C@H]2[C@@H]3CC=C4C[C@@H](O)CC[C@]4(C)[C@H]3C(=O)C[C@]12C` [Compound 4], for which, in experiment [1], the “GluN2A PCA IWB Ephys % potentiation at 3 μM” value is “B (“B” indicates potentiation of >100%)”; the EC50 (usually the midpoint of the concentration-response curve) fell in the range of 100 to 500 nM; the Emax (in general, the greatest response seen or fitted, relative to the assay's reference) is 100 to 500%. In addition, in experiment [2], the “GluN2B PCA IWB Ephys % potentiation at 3 μM” value was “B (“B” indicates potentiation of >100%)”, the EC50 lay in the range of 100 to 500 nM and the Emax fell in the range of 100 to 500%.

Consider `C[C@H](CCC(C)(C)O)[C@H]1CC[C@H]2[C@@H]3CC=C4C[C@@](C)(O)CC[C@]4(C)[C@H]3C(C)(O)C[C@]12C` (some centres unmarked) [Compound 11], for which, in experiment [1], the “GluN2A PCA IWB Ephys % potentiation at 3 μM” value is “B (“B” indicates potentiation of >100%)”, the EC50 fell in the range of 500 to 1000 nM and the Emax was in the range of 100 to 500%. Besides, in experiment [2], the “GluN2B PCA IWB Ephys % potentiation at 3 μM” value was “B (“B” indicates potentiation of >100%)”, the EC50 lay within 1000 to 10000 nM and the Emax was in the range of 100 to 500%.

In the case of `CC[C@]1(O)CC[C@@]2(C)C(=CC[C@H]3[C@@H]4CC[C@H]([C@H](C)CC[C@@H](O)C(C)C)[C@@]4(C)CC(=O)[C@@H]32)C1` [Compound 6], in experiment [1], the EC50 is 1 to 100 nM and the Emax was in the range of 100 to 500%. For the same compound, in experiment [2], the EC50 lay in the range of 1 to 100 nM and the Emax was in the range of 100 to 500%.

As for `C[C@H](CCC(C)(C)O)[C@H]1CC[C@H]2[C@@H]3CC[C@H]4C[C@@](C)(O)CC[C@]4(C)[C@H]3C(=O)C[C@]12C` [Compound 1], in experiment [1], the “GluN2A PCA IWB Ephys % potentiation at 3 μM” value is “B (“B” indicates potentiation of >100%)”, the EC50 is 500 to 1000 nM and the Emax was in the range of 100 to 500%. Also, in experiment [2], the “GluN2B PCA IWB Ephys % potentiation at 3 μM” value is on record as “B (“B” indicates potentiation of >100%)”, the EC50 fell in the range of 500 to 1000 nM and the maximal effect (Emax) was in the range of 100 to 500%.

On to `CC[C@]1(O)CC[C@@]2(C)C(=CC[C@H]3[C@@H]4CC[C@H]([C@H](C)CC[C@@H](O)C(C)(C)C)[C@@]4(C)CC(=O)[C@@H]32)C1` [Compound 10], for which, in experiment [1], the EC50 is 1 to 100 nM and the Emax is above 500%. For the same compound, in experiment [2], the EC50 lay within 1 to 100 nM and the Emax fell in the range of 100 to 500%.

`CC[C@]1(O)CC[C@@]2(C)C(=CC[C@H]3[C@@H]4CC[C@H]([C@H](C)CC[C@H](O)C(C)C)[C@@]4(C)CC(=O)[C@@H]32)C1` [Compound 7]: in experiment [1], the concentration for a half-maximal effect (EC50) lay in the range of 1 to 100 nM and the Emax was 100 to 500%. In experiment [2], the EC50 was in the range of 1 to 100 nM and the Emax lay within 100 to 500%.

In the case of `CC[C@]1(O)CC[C@@]2(C)C(=CC[C@H]3[C@@H]4CC[C@H]([C@H](C)CCC(C)(C)O)[C@@]4(C)CC(=O)[C@@H]32)C1` [Compound 5], in experiment [1], the EC50 fell in the range of 100 to 500 nM and the Emax lay in the range of 100 to 500%. Moreover, in experiment [2], the EC50 lay in the range of 100 to 500 nM and the Emax is 100 to 500%.

`C[C@H](CCC(C)(C)O)[C@H]1CC[C@H]2[C@@H]3CC=C4C[C@@H](O)CC[C@]4(C)[C@H]3[C@@H](O)C[C@]12C` [Compound 3]: in experiment [1], the “GluN2A PCA IWB Ephys % potentiation at 3 μM” value was “A (“A” indicates % potentiation up to 100%)”, the EC50 was at least 10000 nM and the Emax was below 100%. Besides, in experiment [2], the “GluN2B PCA IWB Ephys % potentiation at 3 μM” value is “B (“B” indicates potentiation of >100%)”, the EC50 was 500 to 1000 nM and the Emax was in the range of 100 to 500%.

`C[C@H](CCC(C)(C)O)[C@H]1CC[C@H]2[C@@H]3CC[C@H]4C[C@@H](O)CC[C@]4(C)[C@H]3C(=O)C[C@]12C` [Compound 2]: in experiment [1], the “GluN2A PCA IWB Ephys % potentiation at 3 μM” value is listed as “A (“A” indicates % potentiation up to 100%)”, the EC50 was 1000 to 10000 nM and the Emax was below 100%. Further, in experiment [2], the “GluN2B PCA IWB Ephys % potentiation at 3 μM” value is “A (“A” indicates % potentiation up to 100%)”, the EC50 fell in the range of 500 to 1000 nM and the Emax was below 100%.

For the compound `CC[C@]1(O)CC[C@@]2(C)C(=CC[C@H]3[C@@H]4CC[C@H]([C@H](C)CC[C@H](O)C(C)(C)C)[C@@]4(C)CC(=O)[C@@H]32)C1` [Compound 9], in experiment [1], the EC50 fell in the range of 1 to 100 nM and the Emax is above 500%. In experiment [2], the EC50 lay in the range of 1 to 100 nM and the Emax lay in the range of 100 to 500%.
